Measured values taken from ChEMBL document CHEMBL3886212, “Disubstituted 3,4-diamino-3-cyclobutene-1,2-dione compounds for use in the treatment of chemokine-mediated diseases” (2015).

Experiments:
[1] = biological target: T1, C-X-C chemokine receptor type 1 (Homo sapiens, UniProt P25024); experiment: (§1) Assay Drug Dev Technol. 2007 February; 5(1); 137-44).; type: cell-based
T1 sequence (P25024 whole entry): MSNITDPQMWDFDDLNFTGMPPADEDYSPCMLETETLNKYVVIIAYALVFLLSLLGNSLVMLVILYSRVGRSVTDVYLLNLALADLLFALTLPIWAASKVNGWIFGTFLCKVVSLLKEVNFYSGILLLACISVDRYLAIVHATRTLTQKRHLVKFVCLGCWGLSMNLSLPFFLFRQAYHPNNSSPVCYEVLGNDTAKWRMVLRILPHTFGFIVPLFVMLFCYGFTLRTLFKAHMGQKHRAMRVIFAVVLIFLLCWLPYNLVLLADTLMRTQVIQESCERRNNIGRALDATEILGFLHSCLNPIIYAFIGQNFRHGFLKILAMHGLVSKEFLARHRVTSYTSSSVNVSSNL

[2] = biological target: T2, C-X-C chemokine receptor type 2 (Homo sapiens, UniProt P25025); experiment: as §1; type: cell-based
T2 sequence (P25025 whole entry): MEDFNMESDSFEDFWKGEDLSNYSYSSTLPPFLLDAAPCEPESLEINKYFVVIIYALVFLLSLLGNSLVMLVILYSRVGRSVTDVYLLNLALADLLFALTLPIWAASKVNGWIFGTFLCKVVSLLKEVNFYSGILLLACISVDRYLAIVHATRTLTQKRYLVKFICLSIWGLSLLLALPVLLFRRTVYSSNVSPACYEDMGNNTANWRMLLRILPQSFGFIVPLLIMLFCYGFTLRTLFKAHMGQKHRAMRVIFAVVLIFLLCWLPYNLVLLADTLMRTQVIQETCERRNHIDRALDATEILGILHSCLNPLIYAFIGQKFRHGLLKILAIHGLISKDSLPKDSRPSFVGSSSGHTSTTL

- IC50 [1]: 3350 nM
- IC50 [2]: 157 nM
Structure (SMILES): Cc1ccc(C(Nc2c(Nc3cccc(C(=O)N(C)C)c3O)c(=O)c2=O)C2(C)CCOCC2)o1 (configuration not stated)
